Data taken from patent US12370161B2, “Composition for treating atopy or pruritus comprising N-acetyl or N-acyl amino acid” (STEMDR INC., priority 2017, dated 2025).
Entries after “also recorded” stand apart in the source; their conditions may differ.

Columns and labels:
[1] = test system: atopic dermatitis-induced Balb/c mouse; experiment: SCORAD clinical skin score, DNFB-induced atopic dermatitis in Balb/c mouse; format: in vivo; set-up: key to Mouse 1 Sum / Mean (of Sum, SCORAD) / Mouse 2 Sum / Mouse 3 Sum: sum of symptom grades, each 0 (none) to 3 (severe); conditions: for skin-soothing and atopic dermatitis-treating effect (SCORAD, Table 1, FIG. 2A): Balb/c atopic dermatitis model, 0.1% topical, P<0.05 versus DNFB group; for apparent degree of dermatitis (back skin images, FIG. 2B): Balb/c, treated for 7 days, day 29; for Mouse 1 Erythema / Mouse 1 Abrasion / Mouse 1 Dryness / Mouse 1 Edema / Mouse 1 Eschar / Mouse 1 Lichenification / Mouse 1 Sum / Mouse 2 Abrasion / Mouse 2 Dryness / Mouse 2 Edema / Mouse 2 Erythema / Mouse 2 Eschar / Mouse 2 Lichenification / Mouse 2 Sum / Mouse 3 Abrasion / Mouse 3 Dryness / Mouse 3 Edema / Mouse 3 Erythema / Mouse 3 Eschar / Mouse 3 Lichenification / Mouse 3 Sum / Mean (of Sum, SCORAD): DNFB Balb/c; for Mouse 1 Erythema: 0.1% in PBS, 200 μL on back skin daily day 22-28, grade 0-3 (0 no symptom, 1 mild, 2 moderate, 3 severe); for Mouse 1 Abrasion / Mouse 1 Dryness / Mouse 1 Edema / Mouse 1 Eschar / Mouse 1 Lichenification / Mouse 1 Sum / Mouse 2 Abrasion / Mouse 2 Dryness / Mouse 2 Edema / Mouse 2 Erythema / Mouse 2 Eschar / Mouse 2 Lichenification / Mouse 2 Sum / Mouse 3 Abrasion / Mouse 3 Dryness / Mouse 3 Edema / Mouse 3 Erythema / Mouse 3 Eschar / Mouse 3 Lichenification / Mouse 3 Sum / Mean (of Sum, SCORAD): 0.1% topical day 22-28; for Mouse 1 Abrasion / Mouse 1 Dryness / Mouse 1 Edema / Mouse 1 Eschar / Mouse 1 Lichenification / Mouse 2 Abrasion / Mouse 2 Dryness / Mouse 2 Edema / Mouse 2 Erythema / Mouse 2 Eschar / Mouse 2 Lichenification / Mouse 3 Abrasion / Mouse 3 Dryness / Mouse 3 Edema / Mouse 3 Erythema / Mouse 3 Eschar / Mouse 3 Lichenification: grade 0-3; for Mouse 1 Sum / Mouse 2 Sum / Mouse 3 Sum: overall dermatitis score, sum of individual scores; for Mean (of Sum, SCORAD): mean of 3 mice
Method in brief: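 Mice sensitized with 0.35% DNFB on shaved back, then challenged with 0.25% DNFB on days 6–27; 0.1% N-acetyl/N-acylamino acid in PBS applied topically daily days 22–28, 12 h apart from DNFB. Blinded SCORAD: six symptoms each graded 0–3, summed.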

[2] = test system: IgE; experiment: Serum IgE level by ELISA, Balb/c; format: in vivo, mouse; conditions: atopy-induced Balb/c mice
Experimental: After treatment with the test substance, the mice were sacrificed and blood was taken from the heart. After isolating serum from the blood, IgE level was measured. Specifically, after attaching antibodies diluted in a buffer solution onto a 96-well plate and incubating overnight at 4° C., experiment was conducted using an IgE ELISA kit (BD Biosciences, San Diego, CA) according to the provided manual. The quantity of the IgE protein was determined by measuring absorbance at 450 nm using a microplate reader.

[3] = test system: IL4; experiment: IL4 mRNA in skin tissue by quantitative real-time PCR, Balb/c; format: in vivo, mouse; conditions: atopy-induced Balb/c mice, normalized to β-actin
Experimental: (§1) After isolating total RNA from the atopy-induced skin tissue using 500 μL of Trizol (Life Technologies, USA) according to the manufacturer's protocol and synthesizing cDNA using the Superscript III reverse transcriptase (Life Technologies, USA), real-time PCR was conducted by reacting with the primers of IL4 and interferon γ to be analyzed. The real-time PCR was conducted on a StepOne Plus PCR cycler (Applied Biosystems) using SYBR Green (Applied Biosystems, Foster City, CA). The mRNA expression data were analyzed by the ΔΔCT method and were normalized to β-actin for gene detection. The primers necessary for the real-time PCR were purchased from Qiagen (USA). […] IL4 is known to induce TH2 response and interferon γ is known to induce TH1 response.

[4] = test system: interferon γ; experiment: Interferon γ mRNA in skin tissue by quantitative real-time PCR, Balb/c; format: in vivo, mouse; conditions: atopy-induced Balb/c mice, normalized to β-actin
Experimental: as §1

[5] = test system: pruritus caused by atopic contact dermatitis; experiment: Pruritus inhibition test, pruritus induced with DNFB; format: in vivo, mouse; conditions: 0.1% in physiological saline applied once onto right ear; pruritus measured for 1 hour
Experimental: In order to investigate whether L-form, LID-form and D-form N-acetylalanine, N-acetylarginine, N-acetylthreonine and N-acetyltryptophan inhibit pruritus caused by atopic contact dermatitis, 20 μL of 0.1% 2,4-dinitrofluorobenzene (DNFB) solution and 0.1% N-acetylamino acid dissolved in physiological saline were applied once onto the right ear 10 minutes after the final treatment (day 27) with 2,4-dinitrofluorobenzene (DNFB) (Physiological saline was applied to a negative control group), and then pruritus was measured for 1 hour. FIG. 7 compares the pruritus-relieving effect of L-form N-acetylalanine, N-acetylthreonine, N-acetylarginine and N-acetyltryptophan with D/L-form and D-form N-acetylalanine and N-acetyltryptophan at 0.1% after the induction of pruritus with DNFB.

[6] = test system: atopic dermatitis-induced Nc/Nga mouse; experiment: SCORAD clinical skin score, DNFB-induced atopic dermatitis in Nc/Nga mouse; format: in vivo; set-up: key to Mouse 1 Erythema / Mouse 2 Eschar / Mouse 2 Dryness / Mouse 2 Abrasion / Mouse 1 Edema / Mouse 1 Eschar / Mouse 1 Dryness / Mouse 1 Abrasion / Mouse 2 Erythema / Mouse 2 Edema / Mouse 3 Erythema / Mouse 3 Edema / Mouse 3 Eschar / Mouse 3 Dryness / Mouse 3 Abrasion: 0 = no symptom, 1 = mild, 2 = moderate, 3 = severe; key to Mouse 1 Sum / Mean (of Sum, SCORAD) / Mouse 3 Sum: sum of individual symptom scores, each graded 0-3; conditions: for dermatitis-treating effect of L-, L/D- and D-form (FIG. 6): Nc/Nga atopic dermatitis model, 0.1%; for Mouse 1 Erythema: DNFB Nc/Nga (FIG. 8), 0.1% in PBS, 200 μL on back skin daily day 15-21; for Mouse 1 Erythema / Mouse 1 Abrasion / Mouse 1 Dryness / Mouse 1 Edema / Mouse 1 Eschar / Mouse 1 Lichenification / Mouse 2 Abrasion / Mouse 2 Dryness / Mouse 2 Edema / Mouse 2 Erythema / Mouse 2 Eschar / Mouse 2 Lichenification / Mouse 3 Abrasion / Mouse 3 Dryness / Mouse 3 Edema / Mouse 3 Erythema / Mouse 3 Eschar / Mouse 3 Lichenification: graded per Example 4; for Mouse 1 Abrasion / Mouse 1 Dryness / Mouse 1 Edema / Mouse 1 Eschar / Mouse 1 Lichenification / Mouse 1 Sum / Mouse 2 Abrasion / Mouse 2 Dryness / Mouse 2 Edema / Mouse 2 Erythema / Mouse 2 Eschar / Mouse 2 Lichenification / Mouse 2 Sum / Mouse 3 Abrasion / Mouse 3 Dryness / Mouse 3 Edema / Mouse 3 Erythema / Mouse 3 Eschar / Mouse 3 Lichenification / Mouse 3 Sum / Mean (of Sum, SCORAD): DNFB Nc/Nga, 0.1% topical day 15-21; for Mouse 1 Sum / Mouse 2 Sum / Mouse 3 Sum: sum of individual scores; for Mean (of Sum, SCORAD): mean of 3 mice
Experimental: In order to establish a model more similar to an atopy model than that of the Balb/c mice, atopy was induced in Nc/Nga mouse mice. Specifically, after inducing DNFB sensitization by applying 100 μL of 0.35% 2,4-dinitrofluorobenzene (DNFB) in acetone/olive oil (3:1) on the shaved back skin, dermatitis was induced by applying 100 μL of 0.15% DNFB for 4-20 days, every other day. Control mice were treated with a vehicle of the same volume (FIG. 1B).
After dissolving an N-acetyl or N-acylamino acid in phosphate-buffered saline to 0.1%, 200 μL of the solution was applied on the back skin of the mice every day, from day 22 until day 28 for the Balb/c atopic dermatitis model, and from day 15 until day 21 for the Nc/Nga atopic dermatitis model. When the N-acetyl or N-acylamino acid was treated together with DNFB, they were treated with 12-hour intervals in order to avoid direct reaction between the DNFB and the N-acetyl or N-acylamino acid. A non-treated group and a 2,4-dinitrofluorobenzene (DNFB) group were treated with phosphate-buffered saline of the same volume (FIGS. 1A-1B). As the N-acetylamino acid, products purchased from Sigma-Aldrich (USA), MP scientific (USA), TCI (Tokyo Chemical Industry, Japan), Santacruz (USA), etc. were used without purification.
The degree of skin soothing and the severity of atopic dermatitis were evaluated macroscopically according to the previously established SCORAD (SCORing Atopic Dermatitis) method (Oranje et al., 2007). The degree of symptoms such as edema, erythema, eschar, dryness, abrasion, lichenification, etc. was graded from 0 to 3 (0, no symptom; 1, mild; 2, moderate; 3, severe). The overall dermatitis score was determined from the sum of all individual scores (Table 1). The assessment was performed by an investigator who was blind to the grouping of the mice.
Skin-soothing effect and the severity of dermatitis were evaluated for the acyl derivatives of tryptophan synthesized in Example 9, the acyl derivative of alanine synthesized in Example 10 and N-palmitoylalanine (purchased from Santacruz (USA)) according to the method of Example 4 (Table 2)

SMILES: CC(=O)N[C@@H](CS)C(=O)O [N-acetyl-L-cysteine, reference compound]
- skin-soothing and atopic dermatitis-treating effect (SCORAD, Table 1, FIG. 2A) [1]: significant skin-soothing and atopic dermatitis-treating effects; also recorded: significant atopic dermatitis-treating effect
- apparent degree of dermatitis (back skin images, FIG. 2B) [1]: decreased remarkably
- Mouse 1 Erythema [1]: 2
- Mouse 1 Abrasion [1]: 2
- Mouse 1 Dryness [1]: 2
- Mouse 1 Edema [1]: 2
- Mouse 1 Eschar [1]: 2
- Mouse 1 Lichenification [1]: 3
- Mouse 1 Sum [1]: 13
- Mouse 2 Abrasion [1]: 2
- Mouse 2 Dryness [1]: 3
- Mouse 2 Edema [1]: 1
- Mouse 2 Erythema [1]: 2
- Mouse 2 Eschar [1]: 2
- Mouse 2 Lichenification [1]: 3
- Mouse 2 Sum [1]: 13
- Mouse 3 Abrasion [1]: 2
- Mouse 3 Dryness [1]: 2
- Mouse 3 Edema [1]: 2
- Mouse 3 Erythema [1]: 1
- Mouse 3 Eschar [1]: 2
- Mouse 3 Lichenification [1]: 2
- Mouse 3 Sum [1]: 11
- Mean (of Sum, SCORAD) [1]: 12.33
- serum IgE level (FIG. 4A) [2]: significant decrease
- level of IL4 in the skin tissue (FIG. 5A) [3]: significantly decreased
- level of interferon γ in the skin tissue (FIG. 5A) [4]: significantly decreased

SMILES: CC(=O)N[C@@H](CCCNC(=N)N)C(=O)O [N-acetyl-L-arginine]
- pruritus-relieving effect (FIG. 7) [5]: significantly inhibited pruritus
- skin-soothing and atopic dermatitis-treating effect (SCORAD, Table 1, FIG. 2A) [1]: significant skin-soothing and atopic dermatitis-treating effects; also recorded: significant atopic dermatitis-treating effect
- apparent degree of dermatitis (back skin images, FIG. 2B) [1]: decreased remarkably
- Mouse 1 Erythema [1]: 1
- Mouse 1 Abrasion [1]: 1
- Mouse 1 Dryness [1]: 1
- Mouse 1 Edema [1]: 1
- Mouse 1 Eschar [1]: 1
- Mouse 1 Lichenification [1]: 1
- Mouse 1 Sum [1]: 6
- Mouse 2 Abrasion [1]: 1
- Mouse 2 Dryness [1]: 1
- Mouse 2 Edema [1]: 1
- Mouse 2 Erythema [1]: 1
- Mouse 2 Eschar [1]: 1
- Mouse 2 Lichenification [1]: 1
- Mouse 2 Sum [1]: 6
- Mouse 3 Abrasion [1]: 0
- Mouse 3 Dryness [1]: 1
- Mouse 3 Edema [1]: 1
- Mouse 3 Erythema [1]: 1
- Mouse 3 Eschar [1]: 1
- Mouse 3 Lichenification [1]: 1
- Mouse 3 Sum [1]: 5
- Mean (of Sum, SCORAD) [1]: 5.67
- serum IgE level (FIG. 4A) [2]: significant decrease
- level of IL4 in the skin tissue (FIG. 5A) [3]: significantly decreased
- level of interferon γ in the skin tissue (FIG. 5A) [4]: significantly decreased

SMILES: CC(=O)N[C@@H](C)C(=O)O [D/L-form N-acetylalanine, N-acetylalanine, reference compound]
- pruritus-relieving effect (FIG. 7) [5]: little effect
- dermatitis-treating effect of L-, L/D- and D-form (FIG. 6) ([6]; listed as LID-form N-acetylalanine): no effect

SMILES: CCC(=O)N[C@@H](Cc1c[nH]c2ccccc12)C(=O)O [N-propionyl L-tryptophan, N-propionyl-L-tryptophan]
- Mouse 1 Erythema [6]: 2
- Mouse 1 Abrasion [6]: 2
- Mouse 1 Dryness [6]: 2
- Mouse 1 Edema [6]: 2
- Mouse 1 Eschar [6]: 2
- Mouse 1 Lichenification [6]: 2
- Mouse 1 Sum [6]: 12
- Mouse 2 Abrasion [6]: 2
- Mouse 2 Dryness [6]: 3
- Mouse 2 Edema [6]: 2
- Mouse 2 Erythema [6]: 2
- Mouse 2 Eschar [6]: 2
- Mouse 2 Lichenification [6]: 2
- Mouse 2 Sum [6]: 13
- Mouse 3 Abrasion [6]: 2
- Mouse 3 Dryness [6]: 1
- Mouse 3 Edema [6]: 1
- Mouse 3 Erythema [6]: 2
- Mouse 3 Eschar [6]: 2
- Mouse 3 Lichenification [6]: 1
- Mouse 3 Sum [6]: 9
- Mean (of Sum, SCORAD) [6]: 11.3

SMILES: CCCCCCCCCCC(=O)N[C@@H](Cc1c[nH]c2ccccc12)C(=O)O [N-undecanoyl L-tryptophan, N-undecanoyl-L-tryptophan]
- Mouse 1 Erythema [6]: 1
- Mouse 1 Abrasion [6]: 2
- Mouse 1 Dryness [6]: 1
- Mouse 1 Edema [6]: 2
- Mouse 1 Eschar [6]: 1
- Mouse 1 Lichenification [6]: 2
- Mouse 1 Sum [6]: 9
- Mouse 2 Abrasion [6]: 2
- Mouse 2 Dryness [6]: 1
- Mouse 2 Edema [6]: 1
- Mouse 2 Erythema [6]: 2
- Mouse 2 Eschar [6]: 2
- Mouse 2 Lichenification [6]: 2
- Mouse 2 Sum [6]: 10
- Mouse 3 Abrasion [6]: 1
- Mouse 3 Dryness [6]: 1
- Mouse 3 Edema [6]: 2
- Mouse 3 Erythema [6]: 1
- Mouse 3 Eschar [6]: 2
- Mouse 3 Lichenification [6]: 2
- Mouse 3 Sum [6]: 9
- Mean (of Sum, SCORAD) [6]: 9.3

SMILES: CCCCCCCCCCCCCCCC(=O)N[C@@H](C)C(=O)O [N-palmitoyl L-alanine, N-palmitoyl-L-alanine]
- Mouse 1 Erythema [6]: 1
- Mouse 1 Abrasion [6]: 1
- Mouse 1 Dryness [6]: 1
- Mouse 1 Edema [6]: 2
- Mouse 1 Eschar [6]: 1
- Mouse 1 Lichenification [6]: 1
- Mouse 1 Sum [6]: 7
- Mouse 2 Abrasion [6]: 1
- Mouse 2 Dryness [6]: 1
- Mouse 2 Edema [6]: 1
- Mouse 2 Erythema [6]: 2
- Mouse 2 Eschar [6]: 1
- Mouse 2 Lichenification [6]: 1
- Mouse 2 Sum [6]: 7
- Mouse 3 Abrasion [6]: 2
- Mouse 3 Dryness [6]: 2
- Mouse 3 Edema [6]: 1
- Mouse 3 Erythema [6]: 2
- Mouse 3 Eschar [6]: 1
- Mouse 3 Lichenification [6]: 1
- Mouse 3 Sum [6]: 9
- Mean (of Sum, SCORAD) [6]: 6.7

SMILES: CC(=O)N[C@@H](Cc1c[nH]c2ccccc12)C(=O)O [D/L-form N-acetyltryptophan, N-acetyltryptophan, reference compound]
- pruritus-relieving effect (FIG. 7) [5]: little effect
- dermatitis-treating effect of L-, L/D- and D-form (FIG. 6) ([6]; listed as LID-form N-acetyltryptophan): no effect
